Data on one compound can be found in patent US20250313544A1, “INHIBITORS OF GLUTATHIONE S-TRANSFERASE ZETA 1 (GSTZ1) AND METHODS OF USE” (H. LEE MOFFITT CANCER CENTER AND RESEARCH INSTITUTE, INC., priority 2022, published 2025).

The subject of one assay is H1792 cells. Description: In-gel fluorescence analysis of probe-labeled proteins after photocrosslinking in live H1792 cells. The settings on record: compared to vehicle. The assay is classed as binding, human. As for the experimental part:
Cells were grown in 10 cm dishes to ˜90% confluence at the time of treatment. Cells were carefully washed twice with Dulbecco's phosphate buffered saline (DPBS) and replenished with fresh serum-free RPMI 1640 media containing indicated probes ([…]), competitors, or DMSO. Without competitors, cells were incubated with probes for 30 min at 37° C. and then exposed to 365 nm UV light for 15 min on ice. With competitors, cells were pre-treated with competitors for 30 min and photoactivated for 15 min. Probes were then added to cells for an additional 30 min incubation. For no UV experiments, cells were incubated for 15 min under ambient light. Cells were harvested in cold DPBS and pellets were washed with cold DPBS (2 X). Pellets were either directly processed or kept frozen at −80° C. until use. Cells pellets were lysed for 30 min in cold DPBS (100-300 uL) per culture dish supplemented with 1% NP-40, followed by sonication (5 pulses, 4 s on, 20 s off, output setting=4). Lysates were centrifuged at 20,817×g for 20 min, and supernatant (soluble proteome) was used for further processing. Protein concentrations were determined using Bradford assays.
To 1 mg of protein, were added a mixture of TBTA (Tris((1-benzyl-4-triazolyl)methyl)amine, 60 μL/sample, 1.7 mM in 1:4 DMSO: t-BuOH stock), CuSO4 (20 μL/sample, 50 mM in H2O), TCEP (tris(2-carboxyethyl) phosphine, 20 μL/sample, 50 mM in DPBS, made fresh) and Biotin-Azide conjugate (10 μL/sample, 10 mM in DMSO stock). Each sample was rotated at room temperature for 2 h. To each resultant a cold 4:1 mixture (600 μL) of methanol (MeOH)/chloroform (CHCl3) was added followed by cold PBS (100 μL) on ice. The resulting cloudy mixture was centrifuged (5,000×g, 10 min, 4° C.) to fractionate the protein interface from the organic and aqueous solvent layers. A MeOH:CHCl3 (1:1, 1 mL, 2×) mixture was used to wash protein discs thoroughly. Protein discs were sonicated in cold 4:1 MeOH:CHCl3 (2 mL) mixture. The remaining precipitate was pelleted by centrifugation (5,000×g, 10 min, 4° C.). […] Gels were subjected to fluorescence imaging or Western Blotting.

Another assay deals with T1, GSTZ1 (Homo sapiens, UniProt O43708).
T1 sequence (O43708 1-216): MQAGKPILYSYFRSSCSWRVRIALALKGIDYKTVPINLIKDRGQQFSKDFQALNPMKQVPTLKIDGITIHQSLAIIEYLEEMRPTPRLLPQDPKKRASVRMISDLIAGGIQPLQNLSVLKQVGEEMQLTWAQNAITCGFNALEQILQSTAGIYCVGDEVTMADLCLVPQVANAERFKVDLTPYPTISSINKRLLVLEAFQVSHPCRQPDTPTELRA
The assay can be described thus: GSTZ1 pulldown and competition after photocrosslinking in live H1792 cells (biotin enrichment, immunoblotting). The assay is classed as binding. Set-up: endogenous in cells; host or cells: H1792 cells. The settings on record: UV crosslinking. On the procedure:
Cells were harvested and washed with PBS and lysed in RIPA buffer (150 mM NaCl, 50 mM Tris-HCl, pH 7.4, 5 mM EDTA, 1% NP40, 0.1% SDS) containing complete protease inhibitor cocktail (Roche, 11873580001) and phosphatase inhibitor cocktail 2 (Sigma, P5726) for 30 min on ice. The Coomassie Plus (Bradford) protein assay (23236, ThermoFisher, MA) was conducted for measuring concentrations of resulting supernatants. Samples were prepared by adding 4× Laemmli sample buffer and heat-denaturing for 5 minutes. All samples or total cell lysates were resolved by SDS-PAGE and then transferred onto PVDF membranes. 5% non-fat milk was utilized for blocking of non-specific binding. Blots were incubated with primary antibodies overnight at 4° C. For immunoblotting, primary antibodies were purchased from Cell Signaling: PARP1 (#9542), cleaved caspase-3 (#9661), Phospho-tyrosine Mouse mAb (P-Tyr-100, #9411), FGFR1 (#9740). GAPDH (#60004-1-Ig) and GSTZ1 (#14889-1-AP) were purchased from Proteintech. […] Densitometry was analyzed using Image Studio Lite Ver 5.2.
Cells were grown in 10 cm dishes to ˜90% confluence at the time of treatment. […] Protein concentrations were determined using Bradford assays. […]
On the technique in general: In western blotting, separated proteins are transferred to a membrane and probed.

Regarding `C#CCCC1(CCC(=O)N2CCC(COc3nc4ccccc4nc3C)CC2)N=N1` [Probe 17, 3-(3-(but-3-yn-1-yl)-3H-diazirin-3-yl)-1-(4-(((3-methylquinoxalin-2-yl)oxy)methyl)piperidin-1-yl)propan-1-one], the “proteome labeling by probe (in-gel fluorescence)” value in the assay with H1792 cells is given as “efficiently labeled a wide range of proteins”. At GSTZ1, the “GSTZ1 enrichment by probe (affinity enrichment, immunoblotting with GSTZ1 antibody)” value is “specifically enriched”.
